Results from patent publication US8735584B2 (Merck Patent GmbH, priority 2008, dated 2014).

Target: T1, GST-Aurora A (Homo sapiens, UniProt O14965)
T1 construct: N-terminal GST fusion with full length Aurora A (1-403 amino acids); purchased Carna Biosciences 05-101
T1 sequence (O14965 1-403): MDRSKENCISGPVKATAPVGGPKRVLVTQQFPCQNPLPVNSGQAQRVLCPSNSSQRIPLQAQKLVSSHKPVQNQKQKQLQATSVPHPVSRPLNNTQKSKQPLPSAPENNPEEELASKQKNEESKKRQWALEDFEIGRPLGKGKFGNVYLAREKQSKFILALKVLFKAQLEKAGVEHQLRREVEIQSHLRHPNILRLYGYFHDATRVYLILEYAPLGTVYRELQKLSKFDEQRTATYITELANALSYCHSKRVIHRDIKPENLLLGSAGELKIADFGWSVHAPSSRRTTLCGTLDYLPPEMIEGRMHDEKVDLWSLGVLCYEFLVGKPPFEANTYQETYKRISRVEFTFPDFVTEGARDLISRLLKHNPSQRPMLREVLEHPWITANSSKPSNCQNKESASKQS
Assay: Aurora A IC50, Caliper LC3000 mobility shift assay
Assay type: biochemical
Conditions: LC3000 method; 15 uM ATP (the KM value); read-out: Aurora Kinase A Activity (IC50)
Experimental: The Aurora assays described here are performed on two Caliper Life Sciences systems: the LC3000 and the Desktop Profiler. These provide data on enzyme activity via measurement of the relative amounts of phosphorylated or unphosphorylated fluorescently labelled substrate peptide at the end of an enzymatic reaction. These different states of peptide are resolved by applying a potential difference across the sample. The presence of the charged phosphate group on the product (as opposed to the substrate) causes a different peptide mobility between the two peptides. This is visualized by excitation of the fluorescent label on the substrate and product peptides and represented as peaks within the analysis software.
In order to measure inhibitor activity of Aurora A inhibitors in the Caliper Life Sciences LC3000, a TTP Mosquito liquid handling instrument is used to place 0.25 ul of the appropriate concentration of inhibitor in 100% DMSO (for a dose response curve calculation) into each well of a 384-well plate. To this reaction components are added to a final volume of 25 ul: • 0.067 ng/ul GST-Aurora A (Carna Biosciences 05-101. N-terminal GST fusion with full length Aurora A (1-403 amino acids), accession number NP 940835.1). • 15 uM ATP (Fluke, 02055) • 1 mM DTT (Sigma, D0632) • 1 mM MgCl2 (Sigma, M1028) • 1 uM substrate peptide (sequence FITC-LRRASLG-(CONH2), synthesized by Tufts Peptide Synthesis service. • 100 mM HEPES pH 7.5 (Calbiochem, 391338) • 0.015% Brij-35 (Sigma, B4184)
The reaction is incubated for 90 min at 25 C, and then stopped by the addition of 70 ul of Stop buffer (100 mM HEPES pH 7.5, 0.015% Brij-35, 10 mM EDTA (Sigma, E7889)).
The plate is read on a Caliper LC3000 in an Off-Chip mobility shift assay format, using the following parameters for a 12-sipper chip: screening pressure—1.8 psi, upstream voltage—2700, downstream voltage—1000. These conditions cause unphosphorylated substrate and phosphorylated product peptide to resolve as separate peaks allowing direct measurement of percentage of conversion of substrate to product. The percent conversion can be plotted against concentration of inhibitor to produce a sigmoidal dose response curve, from which an 1050 can be calculated using XLFit for Microsoft Excel.
In the desired wells of a 384-well plate, Aurora A (0.067 ng/ul) was incubated with 15 uM ATP (the KM value), 1 mM DTT, 1 mM MgCl2, and 1 uM peptide substrate (sequence FITC-LRRASLG-(CONH2), FITC=fluorescein isothiocyanate) in 100 mM HEPES pH 7.5 and 0.015% Brij-35 buffer. The reaction was incubated for 90 min at 25 C, and then stopped by the addition of 45 ul of Stop buffer (100 mM HEPES ph 7.5, 0.015% Brij-35, 10 mM EDTA).
The plate was read in a Caliper LC 3000 in an Off-Chip mobility shift assay format, using the following parameters: screening pressure—1.8 psi, upstream voltage—2700, downstream voltage—1000. These conditions cause unphosphorylated substrate peptide to resolve as a peak before that of the phosphorylated peptide product.
In the following table “+” means >100 nM, “++” means 11-100 nM, and “+++” means <11 nM.

Row | Structure (SMILES) | IC50 [nM]
1 | CN1CCC(C(=O)Nc2ccc(Nc3ccnc4[nH]c(=O)c5ccccc5c34)cc2)CC1 [Compound 346, 1-Methyl-N-(4-(6-oxo-5,6-dihydrobenzo[c][1,8]naphthyridin-1-ylamino)phenyl)piperidine-4-carboxamide] | > 100
2 | O=C(Nc1ccc(Nc2ccnc3[nH]c(=O)c4ccccc4c23)cc1)C(F)(F)F [Compound 348, 2,2,2-Trifluoro-N-(4-(6-oxo-5,6-dihydrobenzo[c][1,8]naphthyridin-1-ylamino)phenyl)acetamide] | > 100
3 | O=C(CC(F)(F)F)Nc1ccc(Nc2ccnc3[nH]c(=O)c4ccccc4c23)cc1 [Compound 349, 3,3,3-Trifluoro-N-(4-(6-oxo-5,6-dihydrobenzo[c][1,8]naphthyridin-1-ylamino)phenyl)propanamide] | < 11
4 | O=C(Cc1ccccc1)Nc1ccc(Nc2ccnc3[nH]c(=O)c4ccccc4c23)cc1 [Compound 350, N-(4-(6-Oxo-5,6-dihydrobenzo[c][1,8]naphthyridin-1-ylamino)phenyl)-2-phenylacetamide] | 11 to 100
5 | O=C(Nc1ccc(Nc2ccnc3[nH]c(=O)c4ccccc4c23)cc1)C1CC1 [Compound 351, N-(4-(6-Oxo-5,6-dihydrobenzo[c][1,8]naphthyridin-1-ylamino)phenyl)cyclopropanecarboxamide] | 11 to 100
6 | O=C(CC1CC1)Nc1ccc(Nc2ccnc3[nH]c(=O)c4ccccc4c23)cc1 [Compound 352, 2-Cyclopropyl-N-(4-(6-oxo-5,6-dihydrobenzo[c][1,8]naphthyridin-1-ylamino)phenyl)acetamide] | 11 to 100
7 | CN1CCN(Cc2cccc(C(=O)Nc3ccc(Nc4ccnc5[nH]c(=O)c6ccccc6c45)cc3)c2)CC1 [Compound 354, 3-((4-Methylpiperazin-1-yl)methyl)-N-(4-(6-oxo-5,6-dihydrobenzo[c][1,8]naphthyridin-1-ylamino)phenyl)benzamide] | > 100
8 | CN1CCN(Cc2ccccc2C(=O)Nc2ccc(Nc3ccnc4[nH]c(=O)c5ccccc5c34)cc2)CC1 [Compound 355, 2-((4-Methylpiperazin-1-yl)methyl)-N-(4-(6-oxo-5,6-dihydrobenzo[c][1,8]naphthyridin-1-ylamino)phenyl)benzamide] | > 100
9 | O=C(Nc1ccc(Nc2ccnc3[nH]c(=O)c4ccccc4c23)cc1)c1ccccc1OCCCN1CCOCC1 [Compound 357, 2-(3-morpholinopropoxy)-N-(4-(6-oxo-5,6-dihydrobenzo[c][1,8]naphthyridin-1-ylamino)phenyl)benzamide] | > 100
10 | O=C(c1cc(F)cc(F)c1)N1CCC(CNc2ccnc3[nH]c(=O)c4ccccc4c23)C1 (centres unmarked) [Compound 362, 1-((1-(3,5-Difluorobenzoyl)pyrrolidin-3-yl)methylamino)benzo[c][1,8]naphthyridin-6(5H)-one] | > 100
11 | O=C(Nc1ccccc1)C1(CNc2ccnc3[nH]c(=O)c4ccccc4c23)CC1 [Compound 363, 1-((6-Oxo-5,6-dihydrobenzo[c][1,8]naphthyridin-1-ylamino)methyl)-N-phenylcyclopropanecarboxamide] | > 100
12 | O=C(c1ccccc1)N1CC(Nc2ccnc3[nH]c(=O)c4ccccc4c23)C1 [Compound 366, 1-(1-Benzoylazetidin-3-ylamino)benzo[c][1,8]naphthyridin-6(5H)-one] | > 100
13 | O=C(Cc1ccccc1)N1CCC(Nc2ccnc3[nH]c(=O)c4ccccc4c23)C1 (centres unmarked) [Compound 369, 1-(1-(2-Phenylacetyl)pyrrolidin-3-ylamino)benzo[c][1,8]naphthyridin-6(5H)-one] | > 100
14 | O=C(CN1CC(Nc2ccnc3[nH]c(=O)c4ccccc4c23)C1)Nc1ccccc1 [Compound 370, 2-(3-(6-Oxo-5,6-dihydrobenzo[c][1,8]naphthyridin-1-ylamino)azetidin-1-yl)-N-phenylacetamide] | > 100
15 | O=C(CN1CCC(Nc2ccnc3[nH]c(=O)c4ccccc4c23)C1)Nc1ccccc1 (centres unmarked) [Compound 371, 2-(3-(6-Oxo-5,6-dihydrobenzo[c][1,8]naphthyridin-1-ylamino)pyrrolidin-1-yl)-N-phenylacetamide] | > 100
16 | O=C(CN1CCC(Nc2ccnc3[nH]c(=O)c4ccccc4c23)CC1)Nc1ccccc1 [Compound 372, 2-(4-(6-Oxo-5,6-dihydrobenzo[c][1,8]naphthyridin-1-ylamino)piperidin-1-yl)-N-phenylacetamide] | 11 to 100
17 | O=C(CN1CCC(Nc2ccnc3[nH]c(=O)c4ccccc4c23)CC1)Nc1cccc(F)c1 [Compound 373, N-(3-Fluorophenyl)-2-(4-(6-oxo-5,6-dihydrobenzo[c][1,8]naphthyridin-1-ylamino)piperidin-1-yl)acetamide] | 11 to 100
18 | O=C(CN1CCC(Nc2ccnc3[nH]c(=O)c4ccccc4c23)CC1)Nc1ccc(F)cc1 [Compound 374, N-(4-Fluorophenyl)-2-(4-(6-oxo-5,6-dihydrobenzo[c][1,8]naphthyridin-1-ylamino)piperidin-1-yl)acetamide] | 11 to 100
19 | CN(C(=O)CN1CCC(Nc2ccnc3[nH]c(=O)c4ccccc4c23)CC1)c1ccccc1 [Compound 377, N-Methyl-2-(4-(6-oxo-5,6-dihydrobenzo[c][1,8]naphthyridin-1-ylamino)piperidin-1-yl)-N-phenylacetamide] | > 100
20 | O=C(Nc1ccc(Nc2ccnc3[nH]c(=O)c4ccccc4c23)cc1)c1ccc(F)cc1C(F)(F)F [Compound 378, 4-Fluoro-N-[4-(6-oxo-5,6-dihydro-benzo[c][1,8]naphthyridin-1-ylamino)-phenyl]-2-trifluoromethyl-benzamide] | < 11
21 | O=C(Nc1ccc(Nc2ccnc3[nH]c(=O)c4ccccc4c23)cc1)c1ccccc1C(F)(F)F [Compound 379, N-[4-(6-Oxo-5,6-dihydro-benzo[c][1,8]naphthyridin-1-ylamino)-phenyl]-2-trifluoromethyl-benzamide] | < 11
22 | O=C(Nc1ccc(Nc2ccnc3[nH]c(=O)c4ccccc4c23)cc1)c1ccccc1F [Compound 380, 2-Fluoro-N-[4-(6-oxo-5,6-dihydro-benzo[c][1,8]naphthyridin-1-ylamino)-phenyl]-benzamide] | < 11
23 | O=C(Nc1ccc(Nc2ccnc3[nH]c(=O)c4ccccc4c23)cc1)c1cccc(F)c1 [Compound 381, 3-Fluoro-N-[4-(6-oxo-5,6-dihydro-benzo[c][1,8]naphthyridin-1-ylamino)-phenyl]-benzamide] | < 11
24 | O=C(Nc1ccc(Nc2ccnc3[nH]c(=O)c4ccccc4c23)cc1)c1ccc(F)cc1 [Compound 382, 4-Fluoro-N-[4-(6-oxo-5,6-dihydro-benzo[c][1,8]naphthyridin-1-ylamino)-phenyl]-benzamide] | < 11
25 | O=C(Nc1ccc(Nc2ccnc3[nH]c(=O)c4ccccc4c23)cc1)c1ccc(F)c(F)c1 [Compound 384, 3,4-Difluoro-N-[4-(6-oxo-5,6-dihydro-benzo[c][1,8]naphthyridin-1-ylamino)-phenyl]-benzamide] | < 11
26 | O=C(Nc1ccc(Nc2ccnc3[nH]c(=O)c4ccccc4c23)cc1)c1cc(F)cc(F)c1 [Compound 385, 3,5-Difluoro-N-[4-(6-oxo-5,6-dihydro-benzo[c][1,8]naphthyridin-1-ylamino)-phenyl]-benzamide] | < 11
